Source: patent US20250154112A1, “A PREPARATION OF QUINAZOLINEDIONES AND USE THEREOF” (COUNCIL OF SCIENTIFIC AND INDUSTRIAL RESEARCH AN INDIAN …, priority 2021, published 2025)

Legend:
COP1 = target: T1, COP1 (Homo sapiens, UniProt Q8NHY2); assay: Western blot of COP1 level in HepG2 cells after compound treatment; type: cell-based; details: 5 μM, 24 hours
T1 construct: endogenous in cells; host or cells: HepG2
Procedure: HepG2 cells were treated with the compounds 5, 8, 11, 59, 62, 65, 91, 94 at 5 μM for 24 hours. After removing media from the cells, the wells were washed with 1×PBS twice to remove any remnant media. Cells were then lysed in lysis buffer containing 50 mM Tris-HCl (pH 7.4), 100 mM NaCl, 1 mM EDTA, 1 mM EGTA, 1% Triton X-100 and protease inhibitor cocktail 1 (Millipore, Billierica, MA, USA). Following centrifugation at 20,000 g for 20 minutes, the protein solution was extracted from the cells. Protein was estimated using Bradford assay. Bradford's reagent (BioRad) was diluted in 1:4 ratio in double distilled water. 2 μl of protein sample was added to 100 μl of the reagent and absorbance was measured at 595 nm. 30 μg of protein was diluted in lysis buffer. 1X loading buffer diluted from 5X stock containing 250 mM Tris-HCl (pH 6.8), 10% SDS, 50% glycerol, 0.1% bromophenol Blue and 10% β-mercaptoethanol was added. The protein samples were then heated at 95° C. for 10 minutes, cooled and centrifuged at 12,000 g for 2 minutes prior to loading.
For western blotting, the proteins were resolved in 10% SDS PAGE (discontinuous buffer system). 1X running buffer containing SDS, Tris Base and Glycine was used to run the gel at 80V for approximately 2 hours. Transfer was done using PVDF membrane (Millipore) having pore size of 0.45 μm. 1X transfer buffer containing Tris-Base, Glycine and 20% methanol was used for wet transfer. Transfer was done at 90V for 3 hours. Following transfer, the PVDF membrane containing the proteins were washed in 1×PBST comprising of 1×PBS and 1% Tween 20 (Sigma Aldrich). The membrane was then incubated for 1 hour at room temperature in 5% skim milk powder to block the non-specific sites. Following multiple washes with 1×PBST to wash away any remaining blocking buffer, the required primary antibody (COP1 [BethylLaboraties], ATGL [Cell Signalling Technology] or Actin[Cell Signalling Technology]) prepared with 1×PBST, 1% Bovine Serum Albumin and 0.04% Sodium Azide was added to the membrane and incubated overnight at 4° C. The next day, the membrane was again washed multiple times with 1×PBST to remove any unbound primary antibody. The membrane was then incubated with goat anti-rabbit secondary antibody (Genei) for 1 hour at room temperature and washed again for multiple times with 1×PBST. The membrane was then developed using Clarity™ ECL Western Blotting Substrate (BioRad) and viewed in ChemiDoc (BioRad).

[1] = system: ubiquitination of ATGL by COP1; assay: Immunoprecipitation assay of ATGL ubiquitination status in HepG2 cells; type: cell-based; details: HepG2 cells overexpressing myc-ATGL, HA-Ubiquitin, 5 μM, MG-132, compared with control
Procedure: To this end, an immunoprecipitation assay was performed wherein HepG2 cells overexpressing myc-ATGL were transfected with HA-Ubiquitin and treated with 5 μM of the compounds 5, 62, and 94.MG-132, a proteasomal inhibitor, was added4 hours before harvesting the cells. Immune complexes were pulled down with anti-myc antibody and immunoblot was done using anti-HA antibody. The resultant smears on the blot reflect the ubiquitination status of ATGL.

ATGL = assay: Fold change in ATGL by densitometric analysis; type: cell-based; details: fold change of ATGL with respect to control, normalized with actin
Procedure: Densitimetric analysis was performed by image J to calculate the fold change of ATGL with respect to control. The values were normalized with actin.

[2] = Lipophilicity assay (octanol/buffer Log D); type: physicochemical; details: pH 7.4, n-octanol/sodium phosphate buffer
Procedure: 1.56 g NaH2PO4·2H2O was dissolved in 0.5 L water in a 1 L beaker. After adjusting pH to 7.4 using NaOH solution, the volume was made up to 1 L. Equal volumes of sodium phosphate buffer (10 mM, pH 7.4) and n-octanol were added to a separation funnel and mixed thoroughly by shaking and inverting the funnel several times. The two layers were allowed to separate for overnight and then dispensed in two separate glass bottles. 10 mM stock solution was prepared in 100% DMSO and stored at 4° C. 495 μL of organic phase (1-octanol) was added to each well of a 2 mL deep well plate, followed by 495 μL of buffer and 10 μL of test substance was added. The plate was incubated for 3 hrs at room temperature on a plate shaker at 500 rpm. After incubation, the samples were allowed to equilibrate for 20 min and then centrifuged at 4000 rpm for 30 min for complete phase separation and analysed by LC-UV. Log D=Log (area of octanol/area of buffer)

Plasma stability assay = type: in vitro ADME; details: 1 μM, 37° C.
Procedure: 1 mM Stock of test compound was prepared from 10 mM initial stock solution of compounds by diluting 10 μL of 10 mM stock with 90 μL of DMSO. Then 10 μL of 1 mM stock was diluted with 90 μL of DMSO to give 100 μM concentration. The frozen plasma was thawed at room temperature and centrifuged at 1400 rpm at 4° C., for 15 minutes. Approximately 90% of the clear supernatant fraction was transferred to a separate tube and was used for the assay. Final working stock of 1 μM was prepared by diluting 3 μL of 100 μM with 297 μL of plasma. Plasma containing the test compound was incubated for 120 min at 37° C. in shaker with 500 rpm. 50 μL of aliquot of sample at 0, 15, 30, 60 and 120 minutes were precipitated with 150 μL of acetonitrile containing internal standard and centrifuged at 4000 rpm at 4° C. for 20 minutes. 120 μL of supernatant was diluted with 120 μL of water and analysed by LC-MS/MS.

[3] = Metabolic stability using human liver microsomes (HLM); type: in vitro ADME
Procedure: 1 mM stock solution of test compound was prepared in DMSO and diluted with Acetonitrile:Water (1:1) to get a 100 μM working concentration. 100 mL of Milli Q water was added to K2HPO4 (1.398 g) and KH2PO4 (0.27 g) to get final pH 7.4 solution of potassium phosphate buffer. […] The above mixture was pre incubated for 15 minutes at 37° C. After pre incubation, 32.5 μL of the mixture was added to 17.5 μL of buffer, this was incubated for 60 minutes at 37° C. [60 min Without Cofactor (NADPH)]. 16.25 μL of the pre incubated mixture and 8.75 μL of cofactor was added to 150 μL of acetonitrile containing internal standard [0 min Sample]. 62 μL of cofactor was added to remaining pre incubation mixture [Incubation mixture]. 25 μL of incubation mixture at 0, 5, 15, 30, 60 min and 60 min without cofactor were precipitated with 150 μL of acetonitrile containing internal standard, vortexed and centrifuged at 4000 rpm at 4° C. for 20 minutes. 120 μL of supernatant was diluted with 120 μL of water and analyzed by LC-MS/MS [sample preparation].

T1 sequence (Q8NHY2 whole entry): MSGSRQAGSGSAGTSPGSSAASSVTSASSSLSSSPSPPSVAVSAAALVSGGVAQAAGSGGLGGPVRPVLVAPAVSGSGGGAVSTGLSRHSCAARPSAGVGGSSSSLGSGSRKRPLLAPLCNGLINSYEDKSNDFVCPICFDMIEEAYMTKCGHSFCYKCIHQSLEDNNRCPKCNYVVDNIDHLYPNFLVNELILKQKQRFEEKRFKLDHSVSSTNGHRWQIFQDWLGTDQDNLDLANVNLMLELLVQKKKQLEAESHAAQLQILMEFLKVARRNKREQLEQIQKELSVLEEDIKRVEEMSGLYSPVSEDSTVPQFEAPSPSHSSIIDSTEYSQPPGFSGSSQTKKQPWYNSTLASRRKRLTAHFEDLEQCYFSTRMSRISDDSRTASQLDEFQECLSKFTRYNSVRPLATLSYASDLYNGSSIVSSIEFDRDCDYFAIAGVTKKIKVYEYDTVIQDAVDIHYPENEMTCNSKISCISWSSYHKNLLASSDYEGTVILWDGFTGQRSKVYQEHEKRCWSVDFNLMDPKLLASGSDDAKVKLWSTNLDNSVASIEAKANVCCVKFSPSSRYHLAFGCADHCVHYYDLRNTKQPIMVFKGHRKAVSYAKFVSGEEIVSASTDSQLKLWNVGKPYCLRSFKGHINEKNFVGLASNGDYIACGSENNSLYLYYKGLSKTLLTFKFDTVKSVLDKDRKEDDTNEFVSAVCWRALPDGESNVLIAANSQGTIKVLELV

| stabilization of COP1 (Western Blot) (COP1) | LogD @ pH 7.4 [2] | Mean % remaining at 2 hrs in human Plasma (Plasma stability assay) | % QH (Well stirred model) [3] | logD [2] | SMILES | ubiquitination status of ATGL (poly-Ubiquitin smear) [1] | Fold change (ATGL) |
| --- | --- | --- | --- | --- | --- | --- | --- |
| stabilize the COP1 | 2.78 | 26.18% | 56.74% | – | COCCn1c(=O)c2cc(NC(=O)Nc3cccc(C(C)=O)c3)ccc2n(CCN2CCCCC2)c1=O [Compound 62, 1-(3-acetylphenyl)-3-(3-(2-methoxyethyl)-2,4-dioxo-1-(2-(piperidin-1-yl)ethyl)-1,2,3,4-tetrahydroquinazolin-6-yl)urea] | stark reduction in the ubiquitination smear | 1.55 |
| stabilize the COP1 | 2.17 | 97.40% | 7.60% | – | COCCn1c(=O)[nH]c2ccc(NC(=O)Nc3cccc(C(C)=O)c3)cc2c1=O [Compound 5, 1-(3-acetylphenyl)-3-(3-(2-methoxyethyl)-2,4-dioxo-1,2,3,4-tetrahydroquinazolin-6-yl)urea] | stark reduction in the ubiquitination smear | 1.44 |
| stabilize the COP1 | – | 51.74% | 59.60% | 0.97 | COCCn1c(=O)c2cc(NC(=O)Nc3cccc(C(C)=O)c3)ccc2n(CCCN2CCOCC2)c1=O [Compound 94, 1-(3-acetylphenyl)-3-(3-(2-methoxyethyl)-1-(3-morpholinopropyl)-2,4-dioxo-1,2,3,4-tetrahydroquinazolin-6-yl)urea] | no such effect | 0.84 |
